Measured values: patent US20170355687A1, “ANTIBACTERIAL BENZOTHIAZOLE DERIVATIVES” (Actelion Pharmaceuticals Ltd, priority 2014, published 2017)
≈ marks a conversion by molar mass, not a printed value. Where a name gives a salt, the structure may show the parent alone. Read-outs that look alike come from different tables or passages of the source.

What was measured:
Assay in all cases: Bacterial growth minimal inhibitory concentration, microdilution in cation-adjusted Mueller-Hinton Broth (CLSI M7-A7)
Format in all cases: cell-based
P. aeruginosa ATCC27853 = details: for MIC: Pseudomonas aeruginosa
Protocol: (§1) Minimal Inhibitory Concentrations (MICs; mg/L) were determined in cation-adjusted Mueller-Hinton Broth by a microdilution method following the description given in “Methods for Dilution Antimicrobial Susceptibility Tests for Bacteria that Grow Aerobically”, Approved standard, 7th ed., Clinical and Laboratory Standards Institute (CLSI) Document M7-A7, Wayne, Pa., USA (2006).
(§2) All Example compounds were tested against several Gram-positive and Gram-negative bacteria. […] K pneumoniae A-651 is a multiply-resistant (in particular quinolone-resistant) strain, while E. coli ATCC25922 and P. aeruginosa ATCC27853 are quinolone-sensitive strains.

K. Pneumoniae A-651 = details: for MIC: Klebsiella pneumoniae, read-out: MIC for K. Pneumoniae A-651
Protocol: as §1, §2

E. coli ATCC25922 = details: for MIC: Escherichia coli
Protocol: as §1, §2

[1] = ATCC27853, quinolone-sensitive strain, read-out: MIC for P. aeruginosa ATCC27853
[2] = multiply-resistant (in particular quinolone-resistant) strain
[3] = ATCC25922, quinolone-sensitive strain, read-out: MIC for E. coli ATCC25922

SMILES | MIC (P. aeruginosa ATCC27853; [1]) [µg/mL] | MIC (K. Pneumoniae A-651; [2]) [µg/mL] | MIC (E. coli ATCC25922; [3]) [µg/mL] | other results
COc1ccc(-c2ccc3nc(CCC(C)(C(=O)NO)S(C)(=O)=O)sc3c2)cc1 (racemic) [RE1, (RS)-N-hydroxy-4-(6-(4-methoxyphenyl)benzo[d]thiazol-2-yl)-2-methyl-2-(methylsulfonyl)butanamide] | 16 (≈ 36.8 µM) | 2 (≈ 4.6 µM) | 0.25 (≈ 0.575 µM) | –
CC(CCc1nc2ccc(C#Cc3ccc(CO)cc3)cc2s1)(C(=O)NO)S(C)(=O)=O (racemic) [RE2, (RS)-N-hydroxy-4-(6-((4-(hydroxymethyl)phenyl)ethynyl)benzo[d]thiazol-2-yl)-2-methyl-2-(methylsulfonyl)butanamide] | 16 (≈ 34.9 µM) | 0.5 (≈ 1.09 µM) | 0.125 (≈ 0.273 µM) | –
CC(CCc1nc2ccc(C#Cc3ccc(C4(N)COC4)cc3)cc2s1)(C(=O)NO)S(C)(=O)=O.Cc1ccc(S(=O)(=O)O)cc1 (racemic) [RE3, (RS)-4-(6-((4-(3-aminooxetan-3-yl)phenyl)ethynyl)-benzo[d]thiazol-2-yl)-N-hydroxy-2-methyl-2-(methylsulfonyl)butanamide 4-methyl-benzenesulfonate] | 8 | 1 | 4 | –
CC(CCc1nc2ccc(C#CC#CCO)cc2s1)(C(=O)NO)S(C)(=O)=O (racemic) [RE4, (RS)-N-hydroxy-4-(6-(5-hydroxypenta-1,3-diyn-1-yl)benzo[d]thiazol-2-yl)-2-methyl-2-(methylsulfonyl)butanamide] | 1 (≈ 2.46 µM) | 8 (≈ 19.7 µM) | 0.5 (≈ 1.23 µM) | –
C[C@@](CCc1nc2ccc(C#CC#C[C@]3(O)C[C@@H](CO)C3)cc2s1)(C(=O)NO)S(C)(=O)=O (relative stereo) [Example 21, (R)-N-hydroxy-4-(6-((cis-1-hydroxy-3-(hydroxymethyl)cyclobutyl)buta-1,3-diyn-1-yl)benzo[d]thiazol-2-yl)-2-methyl-2-(methylsulfonyl)butanamide] | – | – | – | MIC for P. aeruginosa ATCC27853 (P. aeruginosa ATCC27853; quinolone-sensitive strain): 2 µg/mL; MIC for K. Pneumoniae A-651 (K. Pneumoniae A-651; [2]): 2 µg/mL; MIC for E. coli ATCC25922 (E. coli ATCC25922; quinolone-sensitive strain): 1 µg/mL
C[C@@](CCc1nc2ccc(C#CC#C[C@@]3(F)C[C@@H]3CO)cc2s1)(C(=O)NO)S(C)(=O)=O (relative stereo) [Example 23, (R)-4-(6-(((1R*,2R*)-1-fluoro-2-(hydroxymethyl)cyclopropyl)buta-1,3-diyn-1-yl)benzo[d]thiazol-2-yl)-N-hydroxy-2-methyl-2-(methylsulfonyl)butanamide] | 0.5 (≈ 1.08 µM) | 0.25 (≈ 0.538 µM) | ≤ 0.063 | –
C[C@@](CCc1nc2ccc(C#CC#C[C@H]3C[C@]3(F)CO)cc2s1)(C(=O)NO)S(C)(=O)=O (relative stereo) [Example 24, (R)-4-(6-(((1R*,2R*)-2-fluoro-2-(hydroxymethyl)cyclopropyl)buta-1,3-diyn-1-yl)benzo[d]thiazol-2-yl)-N-hydroxy-2-methyl-2-(methylsulfonyl)butanamide] | 0.25 (≈ 0.538 µM) | 0.25 (≈ 0.538 µM) | ≤ 0.063 | –
C[C@@](CCc1nc2ccc(C#CC#CC3(O)COC3)cc2s1)(C(=O)NO)S(C)(=O)=O (single isomer, unassigned) [Example 1] | 1 (≈ 2.23 µM) | 0.25 (≈ 0.557 µM) | 0.25 (≈ 0.557 µM) | –
COc1ccc(-c2ccc3nc(CC[C@](C)(C(=O)NO)S(C)(=O)=O)sc3c2)c(F)c1 [Example 2, (R)-4-(6-(2-fluoro-4-methoxyphenyl)benzo[d]thiazol-2-yl)-N-hydroxy-2-methyl-2-(methylsulfonyl)butanamide] | 2 (≈ 4.42 µM) | 0.25 (≈ 0.552 µM) | ≤ 0.063 | –
C[C@@](CCc1nc2ccc(C#Cc3ccc(C4(O)COC4)cc3)cc2s1)(C(=O)NO)S(C)(=O)=O [Example 3, (R)-N-hydroxy-4-(6-((4-(3-hydroxyoxetan-3-yl)phenyl)ethynyl)benzo[d]thiazol-2-yl)-2-methyl-2-(methylsulfonyl)butanamide] | 8 (≈ 16 µM) | 1 (≈ 2 µM) | 4 (≈ 7.99 µM) | –
CC(C)(O)C#CC#Cc1ccc2nc(CC[C@](C)(C(=O)NO)S(C)(=O)=O)sc2c1 [Example 4, (R)-N-hydroxy-4-(6-(5-hydroxy-5-methylhexa-1,3-diyn-1-yl)benzo[d]thiazol-2-yl)-2-methyl-2-(methylsulfonyl)butanamide] | 1 (≈ 2.3 µM) | 0.5 (≈ 1.15 µM) | 0.5 (≈ 1.15 µM) | –
C[C@@](CCc1nc2ccc(C#CC#C[C@H](O)CO)cc2s1)(C(=O)NO)S(C)(=O)=O [Example 5, (R)-4-(6-((S)-5,6-dihydroxyhexa-1,3-diyn-1-yl)benzo[d]thiazol-2-yl)-N-hydroxy-2-methyl-2-(methylsulfonyl)butanamide] | 1 (≈ 2.29 µM) | 8 (≈ 18.3 µM) | 1 (≈ 2.29 µM) | –
CC(C)(N)C#CC#Cc1ccc2nc(CC[C@](C)(C(=O)NO)S(C)(=O)=O)sc2c1 [Example 6, (R)-4-(6-(5-amino-5-methylhexa-1,3-diyn-1-yl)benzo[d]thiazol-2-yl)-N-hydroxy-2-methyl-2-(methylsulfonyl)butanamide] | 1 (≈ 2.31 µM) | 1 (≈ 2.31 µM) | 0.25 (≈ 0.577 µM) | –
C[C@@](CCc1nc2ccc(C#CC#C[C@H]3C[C@@H]3CO)cc2s1)(C(=O)NO)S(C)(=O)=O [Example 7, (R)-N-hydroxy-4-(6-(((1S,2S)-2-(hydroxymethyl)cyclopropyl)buta-1,3-diyn-1-yl)benzo[d]thiazol-2-yl)-2-methyl-2-(methylsulfonyl)butanamide] | 0.5 (≈ 1.12 µM) | 0.125 (≈ 0.28 µM) | ≤ 0.063 | –
C[C@@](CCc1nc2ccc(C#CC#CC3(CO)CC3)cc2s1)(C(=O)NO)S(C)(=O)=O [Example 8, (R)-N-hydroxy-4-(6-((1-(hydroxymethyl)cyclopropyl)buta-1,3-diyn-1-yl)benzo[d]thiazol-2-yl)-2-methyl-2-(methylsulfonyl)butanamide] | 0.5 (≈ 1.12 µM) | 0.5 (≈ 1.12 µM) | 0.25 (≈ 0.56 µM) | –
C[C@@](CCc1nc2ccc(C#CC#CC3(N)COC3)cc2s1)(C(=O)NO)S(C)(=O)=O [Example 9, (R)-4-(6-((3-aminooxetan-3-yl)buta-1,3-diyn-1-yl)benzo[d]thiazol-2-yl)-N-hydroxy-2-methyl-2-(methylsulfonyl)butanamide] | 2 (≈ 4.47 µM) | 2 (≈ 4.47 µM) | 1 (≈ 2.23 µM) | –
C[C@@](CCc1nc2ccc(C#CC#CC3(N)CC3)cc2s1)(C(=O)NO)S(C)(=O)=O [Example 10, (R)-4-(6-((1-aminocyclopropyl)buta-1,3-diyn-1-yl)benzo[d]thiazol-2-yl)-N-hydroxy-2-methyl-2-(methylsulfonyl)butanamide hydrochloride] | – | – | – | MIC (P. aeruginosa ATCC27853; ATCC27853, read-out: MIC for P. aeruginosa ATCC27853): 1 µg/mL; MIC (K. Pneumoniae A-651): 0.25 µg/mL; MIC (E. coli ATCC25922; ATCC25922, read-out: MIC for E. coli ATCC25922): 0.125 µg/mL
C[C@@](CCc1nc2ccc(C#Cc3ccc(C4(CO)CC4)cc3)cc2s1)(C(=O)NO)S(C)(=O)=O [Example 11, (R)-N-hydroxy-4-(6-((4-(1-(hydroxymethyl)cyclopropyl)phenyl)ethynyl)benzo[d]thiazol-2-yl)-2-methyl-2-(methylsulfonyl)butanamide] | 4 (≈ 8.02 µM) | 0.5 (≈ 1 µM) | 0.125 (≈ 0.251 µM) | –
C[C@@](CCc1nc2ccc(C#CC#CC3(CO)CCC3)cc2s1)(C(=O)NO)S(C)(=O)=O [Example 12, (R)-N-hydroxy-4-(6-((1-(hydroxymethyl)cyclobutyl)buta-1,3-diyn-1-yl)benzo[d]thiazol-2-yl)-2-methyl-2-(methylsulfonyl)butanamide] | 2 (≈ 4.34 µM) | 0.5 (≈ 1.09 µM) | 0.125 (≈ 0.271 µM) | –
C[C@@](CCc1nc2ccc(C#CC#C[C@@H]3C[C@@H](O)[C@@H](O)C3)cc2s1)(C(=O)NO)S(C)(=O)=O [Example 13, (R)-4-(6-(((1s,3R,4S)-3,4-dihydroxycyclopentyl)buta-1,3-diyn-1-yl)benzo[d]thiazol-2-yl)-N-hydroxy-2-methyl-2-(methylsulfonyl)butanamide] | – | – | – | MIC for P. aeruginosa ATCC27853 (P. aeruginosa ATCC27853; quinolone-sensitive strain): 1 µg/mL; MIC for K. Pneumoniae A-651 (K. Pneumoniae A-651; [2]): 0.5 µg/mL; MIC for E. coli ATCC25922 (E. coli ATCC25922; quinolone-sensitive strain): 0.25 µg/mL
C[C@@](CCc1nc2ccc(C#CC#CCC3(O)COC3)cc2s1)(C(=O)NO)S(C)(=O)=O [Example 14, (R)-N-hydroxy-4-(6-(5-(3-hydroxyoxetan-3-yl)penta-1,3-diyn-1-yl)benzo[d]thiazol-2-yl)-2-methyl-2-(methylsulfonyl)butanamide] | 1 (≈ 2.16 µM) | 1 (≈ 2.16 µM) | 0.5 (≈ 1.08 µM) | –
C[C@@]1(C#CC#Cc2ccc3nc(CC[C@](C)(C(=O)NO)S(C)(=O)=O)sc3c2)C[C@H]1CO [Example 15, (R)-N-hydroxy-4-(6-(((1R,2R)-2-(hydroxymethyl)-1-methylcyclopropyl)buta-1,3-diyn-1-yl)benzo[d]thiazol-2-yl)-2-methyl-2-(methylsulfonyl)butanamide] | 1 (≈ 2.17 µM) | 0.5 (≈ 1.09 µM) | 0.125 (≈ 0.271 µM) | –
C[C@@](CCc1nc2ccc(C#CC#C[C@@H]3CC[C@@H](N)CO3)cc2s1)(C(=O)NO)S(C)(=O)=O [Example 16, (R)-4-(6-(((2S,5R)-5-aminotetrahydro-2H-pyran-2-yl)buta-1,3-diyn-1yl)benzo[d]thiazol-2-yl)-N-hydroxy-2-methyl-2-(methylsulfonyl)butanamide] | 4 (≈ 8.41 µM) | 8 (≈ 16.8 µM) | 4 (≈ 8.41 µM) | –
CN(C)CC#CC#Cc1ccc2nc(CC[C@](C)(C(=O)NO)S(C)(=O)=O)sc2c1 [Example 17, (R)-4-(6-(5-(dimethylamino)penta-1,3-diyn-1-yl)benzo[d]thiazol-2-yl)-N-hydroxy-2-methyl-2-(methylsulfonyl)butanamide] | 2 (≈ 4.61 µM) | 0.25 (≈ 0.577 µM) | 0.125 (≈ 0.288 µM) | –
